Test results: patent publication US9315502B2, “Imidazopyridine derivatives” (Hoffmann-La Roche Inc., priority 2012, dated 2016)

Key:
[1] = system: human embryonic stem cell derived neural stem cells (NSCs); experiment: Neural Stem Cell Proliferation Assay (neurogenesis assay, ATP levels by CellTiterGlo); assay type: cell-based; conditions: 96 h, compound concentration at which 150% activity of control (100%) is reached, NSC proliferation, 4 days incubation
Description: Neural Stem Cell Proliferation Assay
Neurogenic properties of small molecules are determined based on the proliferation of human embryonic stem cell derived neural stem cells (NSCs) which were derived via a dual smad inhibition as previously described (Chambers, S. M., et al., Highly efficient neural conversion of human ES and iPS cells by dual inhibition of SMAD signaling, Nature biotechnology, 2009. 27(3): p. 275-80.)
Compounds respond is measured by the increase in cells based on ATP levels
(Promega:CellTiterGlo®) after an incubation period of 4 days.
NSCs are thawed and expanded over 3 passages. On the 14th day, NSCs are seeded in Polyornithin/Laminin coated 384 well plates at a cell density of 21′000 cells/cm^2 in a media volume of 38 μl.
4 hours after cell seeding, compound solutions are added at a volume of 2 μl. Stock solutions of the compounds (water, 5% DMSO) are diluted to obtain a dose response (11 points, dilution factor is 2), ranging from 8 μM to 8 nM. Controls are run to consistently determine the neurogenic properties of the cells:
Negative (neutral) control is cell culture Media (final DMSO concentration: 0.25%). Positive controls are: • 1. cell culture Media+100 ng/ml FGF2 (final DMSO concentration: 0.1%) • 2. cell culture Media+20 ng/ml EGF (final DMSO concentration: 0.1%) • 3. cell culture Media+100 ng/ml Wnt3a (final DMSO concentration: 0.1%)
After 4 days incubation at 37° C., 5% CO2, the amount of ATP per well is quantified. The ATP concentration is proportional to the cell number. ATP is quantified by using the Promega CellTiterGlo® kit. The CellTiterGlo® reagents contain a cell lysis buffer, a thermo stable luciferase (UltraGlo™ recombinant luciferase), magnesium and luciferin. Luciferin reacts with ATP producing oxyluciferin, AMP and light. The luminescence signal is proportional to the ATP content.
The value of negative (neutral) control is determined for each assay plate by taking the average of 16 negative control wells. The neurogenic compound response is calculated for each compound as (compound/Negative Control)* 100.
The values of EC150 from the dose response curve are determined for each test compound. The EC150 is the compound concentration at which 150% activity of control (100%) is reached.

Work on `Fc1ccc(-c2cnc3ccc(-c4ccnn4-c4ccc(F)cc4)cn23)cc1` [Example 1, 3-(4-Fluoro-phenyl)-6-[2-(4-fluoro-phenyl)-2H-pyrazol-3-yl]-imidazo[1,2-a]pyridine] yielded a melting point of 172 °C and an EC (150% of control) [1] of 0.019 µM.

`N#Cc1ccc(-c2cnc3ccc(-c4ccnn4-c4ccc(F)cc4)cn23)cc1` [Example 19, 4-{6-[2-(4-Fluoro-phenyl)-2H-pyrazol-3-yl]-imidazo [1,2-a]pyridin-3-yl}-benzonitrile] showed a melting point of 215 °C and an EC (150% of control) [1] of 0.03 µM.

`Fc1cc(Cl)ccc1-c1cnc2ccc(-c3ccnn3-c3ccc(Cl)cc3)cn12` [Example 11, 3-(4-Chloro-2-fluoro-phenyl)-6-[2-(4-chloro-phenyl)-2H-pyrazol-3-yl]-imidazo[1,2-a]pyridine] gave a melting point of 148 °C and an EC (150% of control) [1] of 0.089 µM.

In the case of `Fc1ccc(-n2nccc2-c2ccc3ncc(-c4ccc(C(F)(F)F)cc4)n3c2)cc1` [Example 18, 6-[2-(4-Fluoro-phenyl)-2H-pyrazol-3-yl]-3-(4-trifluoromethyl-phenyl)-imidazo[1,2-a]pyridine], the melting point was 172 °C and the EC (150% of control) [1] was 0.18 µM.

With `Fc1ccc(-n2nccc2-c2ccc3ncc(-c4ccc(F)cc4F)n3c2)cc1` [Example 14, 3-(2,4-Difluoro-phenyl)-6-[2-(4-fluoro-phenyl)-2H-pyrazol-3-yl]-imidazo[1,2-a]pyridine] the melting point was 168 °C and the EC (150% of control) [1] was 0.053 µM.

With `Clc1ccc(-n2nccc2-c2ccc3ncc(-c4ccncc4)n3c2)cc1` [Example 7, 6-[2-(4-Chloro-phenyl)-2H-pyrazol-3-yl]-3-pyridin-4-yl-imidazo[1,2-a]pyridine] the melting point was 186 °C and the EC (150% of control) [1] was 0.022 µM.

Work on `Fc1ccc(-n2nccc2-c2ccc3ncc(-c4ccc(Cl)cc4F)n3c2)cc1` [Example 9, 3-(4-Chloro-2-fluoro-phenyl)-6-[2-(4-fluoro-phenyl)-2H-pyrazol-3-yl]-imidazo[1,2-a]pyridine] yielded a melting point of 187 °C and an EC (150% of control) [1] of 0.055 µM.

With `Fc1ccc(-n2nccc2-c2ccc3ncc(-c4ccncc4)n3c2)cc1` [Example 6, 6-[2-(4-Fluoro-phenyl)-2H-pyrazol-3-yl]-3-pyridin-4-yl-imidazo [1,2-a]pyridine] the melting point was 201 °C and the EC (150% of control) [1] was 0.026 µM.

In the case of `Cc1ccc(-n2nccc2-c2ccc3ncc(-c4ccc(F)cc4)n3c2)cc1` [Example 5, 3-(4-Fluoro-phenyl)-6-(2-p-tolyl-2H-pyrazol-3-yl)-imidazo[1,2-a]pyridine], the melting point was 141 °C and the EC (150% of control) [1] was 0.008 µM.

`COc1ccc(-c2cnc3ccc(-c4ccnn4-c4ccc(Cl)cc4)cn23)cc1` [Example 12, 6-[2-(4-Chloro-phenyl)-2H-pyrazol-3-yl]-3-(4-methoxy-phenyl)-imidazo [1,2-a]pyridine] gave a melting point of 142 °C and an EC (150% of control) [1] of 0.045 µM.

Compound `Fc1ccc(-c2cnc3ccc(-c4ccnn4-c4ccc(C(F)(F)F)cc4)cn23)cc1` [Example 23, 3-(4-Fluoro-phenyl)-6-[2-(4-trifluoromethyl-phenyl)-2H-pyrazol-3-yl]-imidazo[1,2-a]pyridine] has a melting point of 147 °C and an EC (150% of control) [1] of 0.79 µM.

Compound `Fc1ccc(-n2nccc2-c2ccc3ncc(-c4ccc(Cl)cc4)n3c2)cc1` [Example 4, 3-(4-Chloro-phenyl)-6-[2-(4-fluoro-phenyl)-2H-pyrazol-3-yl]-imidazo [1,2-a]pyridine] has a melting point of 171 °C and an EC (150% of control) [1] of 0.092 µM.

For `Fc1ccc(-c2cnc3ccc(-c4ccnn4-c4ccc(Cl)cc4)cn23)cc1` [Example 3, 6-[2-(4-Chloro-phenyl)-2H-pyrazol-3-yl]-3-(4-fluoro-phenyl)-imidazo[1,2-a]pyridine], the melting point was 147 °C and the EC (150% of control) [1] was 0.096 µM.

With `CS(=O)(=O)c1ccc(-c2cnc3ccc(-c4ccnn4-c4ccc(Cl)cc4)cn23)cc1` [Example 21, 6-[2-(4-Chloro-phenyl)-2H-pyrazol-3-yl]-3-(4-methanesulfonyl-phenyl)-imidazo[1,2-a]pyridine] the melting point was 259 °C and the EC (150% of control) [1] was 0.25 µM.

`N#Cc1ccc(-c2cnc3ccc(-c4ccnn4-c4ccc(Cl)cc4)cn23)cc1` [Example 20, 4-{6-[2-(4-Chloro-phenyl)-2H-pyrazol-3-yl]-imidazo[1,2-a]pyridin-3-yl}-benzonitrile] showed a melting point of 208 °C and an EC (150% of control) [1] of 0.04 µM.

`COc1ccc(-c2cnc3ccc(-c4ccnn4-c4ccc(F)cc4)cn23)cc1` [Example 13, 6-[2-(4-Fluoro-phenyl)-2H-pyrazol-3-yl]-3-(4-methoxy-phenyl)-imidazo [1,2-a]pyridine] showed a melting point of 162 °C and an EC (150% of control) [1] of 0.024 µM.

With `CS(=O)(=O)c1ccc(-c2cnc3ccc(-c4ccnn4-c4ccc(F)cc4)cn23)cc1` [Example 22, 6-[2-(4-Fluoro-phenyl)-2H-pyrazol-3-yl]-3-(4-methanesulfonyl-phenyl)-imidazo[1,2-a]pyridine] the melting point was 226 °C and the EC (150% of control) [1] was 0.24 µM.

Work on `FC(F)(F)c1ccc(-c2cnc3ccc(-c4ccnn4-c4ccc(Cl)cc4)cn23)cc1` [Example 17, 6-[2-(4-Chloro-phenyl)-2H-pyrazol-3-yl]-3-(4-trifluoromethyl-phenyl)-imidazo[1,2-a]pyridine] yielded a melting point of 167 °C and an EC (150% of control) [1] of 0.38 µM.

`Clc1ccc(-c2cnc3ccc(-c4ccnn4-c4ccc(Cl)cc4)cn23)cc1` [Example 2, 3-(4-Chloro-phenyl)-6-[2-(4-chloro-phenyl)-2H-pyrazol-3-yl]-imidazo[1,2-a]pyridine] gave a melting point of 172.5 °C and an EC (150% of control) [1] of 0.1 µM.

Compound `c1ccc(-c2cnc3ccc(-c4ccnn4-c4ccccc4)cn23)cc1` [Example 8, 3-Phenyl-6-(2-phenyl-2H-pyrazol-3-yl)-imidazo[1,2-a]pyridine] has a melting point of 139 °C and an EC (150% of control) [1] of 0.019 µM.

Compound `Fc1ccc(-c2cnc3ccc(-c4ccnn4-c4ccc(Cl)cc4)cn23)c(F)c1` [Example 15, 6-[2-(4-Chloro-phenyl)-2H-pyrazol-3-yl]-3-(2,4-difluoro-phenyl)-imidazo[1,2-a]pyridine] has a melting point of 152 °C and an EC (150% of control) [1] of 0.029 µM.

With `Cc1ccc(-n2nccc2-c2ccc3ncc(-c4ccccc4)n3c2)cc1` [Example 10, 3-Phenyl-6-(2-p-tolyl-2H-pyrazol-3-yl)-imidazo[1,2-a]pyridine] the melting point was 107 °C and the EC (150% of control) [1] was 0.009 µM.

In the case of `N#Cc1ccc(-c2cnc3ccc(-c4ccnn4-c4ccc(C(F)(F)F)cc4)cn23)cc1` [Example 24, 4-{6-[2-(4-Trifluoromethyl-phenyl)-2H-pyrazol-3-yl]-imidazo [1,2-a]pyridin-3-yl}-benzonitrile], the melting point was 201 °C and the EC (150% of control) [1] was 2.6 µM.

Work on `Fc1ccc(-c2cnc3ccc(-c4cncn4-c4ccc(F)cc4)cn23)cc1` [Example 16, 3-(4-Fluoro-phenyl)-6-[3-(4-fluoro-phenyl)-3H-imidazol-4-yl]-imidazol[1,2-a]pyridine] yielded a melting point of 206 °C and an EC (150% of control) [1] of 0.053 µM.
